Experiments:
[1] = DRUGMATRIX: Serotonin (5-Hydroxytryptamine) 5-HT3 radioligand binding (ligand: [3H] GR-65630); type: cell membranes, Membrane; conditions: hek293; Not Active = under 50% inhibition at 10 µM
D(4) dopamine receptor = target: T1, D(4) dopamine receptor (Homo sapiens, UniProt P21917); assay: DRUGMATRIX: Dopamine D4.2 radioligand binding (ligand: [3H] Spiperone); type: cell membranes, CHO-K1, Membrane; conditions: cho-k1; Not Active = under 50% inhibition at 10 µM
T1 sequence (P21917 whole entry): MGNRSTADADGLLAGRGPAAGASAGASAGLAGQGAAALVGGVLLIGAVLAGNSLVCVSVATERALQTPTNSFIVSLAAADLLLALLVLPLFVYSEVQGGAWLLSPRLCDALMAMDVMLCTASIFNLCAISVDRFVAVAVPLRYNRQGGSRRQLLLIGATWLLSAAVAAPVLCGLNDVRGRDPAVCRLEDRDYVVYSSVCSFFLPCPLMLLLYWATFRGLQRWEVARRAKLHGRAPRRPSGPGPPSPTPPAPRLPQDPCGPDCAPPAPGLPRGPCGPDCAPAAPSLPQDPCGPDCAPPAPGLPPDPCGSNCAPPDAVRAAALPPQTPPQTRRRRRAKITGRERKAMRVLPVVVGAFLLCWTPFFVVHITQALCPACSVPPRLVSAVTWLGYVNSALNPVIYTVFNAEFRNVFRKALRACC

[2] = DRUGMATRIX: Glutamate, AMPA radioligand binding (ligand: [3H] AMPA); type: cell membranes, Rattus norvegicus, Wistar, Cerebral cortex, Membrane; conditions: Not Active = under 50% inhibition at 10 µM
Insulin receptor = Insulin receptor (Rattus norvegicus, UniProt P15127); type: cell membranes, Wistar, Liver, Membrane; note: in other assays of this panel Not Active means under 50% inhibition at 10 µM
Chain of Insulin receptor (P15127 27-759 limits assumed): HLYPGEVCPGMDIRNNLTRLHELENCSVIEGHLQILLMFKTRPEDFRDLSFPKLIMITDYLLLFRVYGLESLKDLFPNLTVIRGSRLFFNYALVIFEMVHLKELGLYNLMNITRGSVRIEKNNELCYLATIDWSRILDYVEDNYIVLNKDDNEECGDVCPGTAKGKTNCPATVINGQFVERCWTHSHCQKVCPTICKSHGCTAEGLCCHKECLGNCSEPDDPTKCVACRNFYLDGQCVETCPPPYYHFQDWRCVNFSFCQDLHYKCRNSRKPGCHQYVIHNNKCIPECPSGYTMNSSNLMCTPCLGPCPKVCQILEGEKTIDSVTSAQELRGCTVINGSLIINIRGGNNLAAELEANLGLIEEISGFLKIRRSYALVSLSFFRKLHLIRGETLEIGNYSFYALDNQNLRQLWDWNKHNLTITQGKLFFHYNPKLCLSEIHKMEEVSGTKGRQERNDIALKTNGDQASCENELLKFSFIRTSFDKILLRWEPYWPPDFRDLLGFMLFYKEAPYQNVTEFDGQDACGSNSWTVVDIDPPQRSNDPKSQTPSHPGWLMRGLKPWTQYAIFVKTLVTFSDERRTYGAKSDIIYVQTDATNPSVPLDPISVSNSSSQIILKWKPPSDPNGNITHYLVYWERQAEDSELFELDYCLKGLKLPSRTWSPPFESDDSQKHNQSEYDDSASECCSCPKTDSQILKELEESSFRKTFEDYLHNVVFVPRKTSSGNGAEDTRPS
Chain of Insulin receptor (P15127 764-1383 limits assumed): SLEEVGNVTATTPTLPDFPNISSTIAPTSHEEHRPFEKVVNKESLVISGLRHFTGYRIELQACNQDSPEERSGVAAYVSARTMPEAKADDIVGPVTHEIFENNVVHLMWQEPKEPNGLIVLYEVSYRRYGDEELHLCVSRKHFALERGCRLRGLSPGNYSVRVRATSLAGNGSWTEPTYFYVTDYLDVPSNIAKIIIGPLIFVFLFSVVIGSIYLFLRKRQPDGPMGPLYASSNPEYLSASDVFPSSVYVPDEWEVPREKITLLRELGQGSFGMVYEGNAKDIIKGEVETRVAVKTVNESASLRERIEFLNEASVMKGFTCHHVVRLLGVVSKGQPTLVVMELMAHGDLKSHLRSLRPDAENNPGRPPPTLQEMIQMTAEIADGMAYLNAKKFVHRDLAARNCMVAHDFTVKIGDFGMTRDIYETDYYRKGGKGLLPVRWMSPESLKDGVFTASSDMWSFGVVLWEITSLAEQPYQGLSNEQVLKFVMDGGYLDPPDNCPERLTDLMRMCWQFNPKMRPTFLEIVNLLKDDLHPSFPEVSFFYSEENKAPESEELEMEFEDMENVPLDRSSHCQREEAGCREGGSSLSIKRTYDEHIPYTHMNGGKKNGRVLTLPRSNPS

[3] = target: T2, Muscarinic acetylcholine receptor M4 (Homo sapiens, UniProt P08173); type: cell membranes, CHO-K1, Membrane; conditions: cho-k1; note: in other assays of this panel Not Active means under 50% inhibition at 10 µM
T2 sequence (P08173 whole entry): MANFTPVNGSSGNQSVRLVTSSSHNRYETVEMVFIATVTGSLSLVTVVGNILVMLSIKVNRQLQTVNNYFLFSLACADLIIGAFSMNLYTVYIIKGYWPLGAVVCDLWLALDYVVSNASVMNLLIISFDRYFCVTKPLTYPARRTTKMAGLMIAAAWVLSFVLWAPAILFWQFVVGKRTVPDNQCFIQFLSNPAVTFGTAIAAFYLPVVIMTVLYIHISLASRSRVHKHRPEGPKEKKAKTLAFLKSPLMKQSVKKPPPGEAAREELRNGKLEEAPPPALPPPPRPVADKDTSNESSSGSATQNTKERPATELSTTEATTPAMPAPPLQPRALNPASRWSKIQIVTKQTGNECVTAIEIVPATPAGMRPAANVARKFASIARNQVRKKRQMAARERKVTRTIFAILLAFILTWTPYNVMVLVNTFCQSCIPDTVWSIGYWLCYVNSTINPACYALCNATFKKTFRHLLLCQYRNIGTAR

Mu-type opioid receptor = Mu-type opioid receptor (Homo sapiens, UniProt P35372); assay: DRUGMATRIX: Opiate mu (OP3, MOP) radioligand binding (ligand: [3H] Diprenorphine); type: cell membranes, CHO-K1, Membrane; conditions: cho-k1; Not Active = under 50% inhibition at 10 µM
Chain of Mu-type opioid receptor (P35372 whole entry): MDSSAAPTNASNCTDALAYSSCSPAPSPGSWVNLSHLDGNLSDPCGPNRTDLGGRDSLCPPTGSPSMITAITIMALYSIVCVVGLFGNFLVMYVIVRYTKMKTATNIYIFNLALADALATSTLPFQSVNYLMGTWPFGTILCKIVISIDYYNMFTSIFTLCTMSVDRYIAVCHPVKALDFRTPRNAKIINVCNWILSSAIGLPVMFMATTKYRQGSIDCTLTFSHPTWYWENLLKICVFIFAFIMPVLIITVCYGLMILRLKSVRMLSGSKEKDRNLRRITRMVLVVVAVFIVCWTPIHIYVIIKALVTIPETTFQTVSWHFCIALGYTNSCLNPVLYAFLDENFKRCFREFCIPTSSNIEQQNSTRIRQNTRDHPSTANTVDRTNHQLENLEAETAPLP

Cytochrome P450 3A4 = Cytochrome P450 3A4 (Homo sapiens, UniProt P08684); conditions: bti-tn-5b1-4; note: in other assays of this panel Not Active means under 50% inhibition at 10 µM
Chain of Cytochrome P450 3A4 (P08684 whole entry): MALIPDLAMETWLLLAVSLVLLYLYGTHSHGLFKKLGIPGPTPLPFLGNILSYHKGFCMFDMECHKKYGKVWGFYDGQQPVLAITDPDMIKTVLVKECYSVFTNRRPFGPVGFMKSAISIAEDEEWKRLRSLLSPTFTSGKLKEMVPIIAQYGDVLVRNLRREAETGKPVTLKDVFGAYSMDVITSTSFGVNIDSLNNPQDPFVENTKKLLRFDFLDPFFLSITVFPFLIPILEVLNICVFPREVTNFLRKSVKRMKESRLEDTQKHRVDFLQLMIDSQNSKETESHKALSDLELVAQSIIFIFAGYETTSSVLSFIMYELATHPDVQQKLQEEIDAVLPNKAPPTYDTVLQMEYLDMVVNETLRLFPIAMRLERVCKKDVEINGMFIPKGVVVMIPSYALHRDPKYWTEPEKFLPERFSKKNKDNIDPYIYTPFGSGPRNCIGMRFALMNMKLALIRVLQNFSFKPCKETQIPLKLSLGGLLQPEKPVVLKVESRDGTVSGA

[4] = target: Voltage-gated inwardly rectifying potassium channel KCNH2 (Homo sapiens, UniProt Q12809); conditions: hek293; note: in other assays of this panel Not Active means under 50% inhibition at 10 µM
Chain of Voltage-gated inwardly rectifying potassium channel KCNH2 (Q12809 whole entry): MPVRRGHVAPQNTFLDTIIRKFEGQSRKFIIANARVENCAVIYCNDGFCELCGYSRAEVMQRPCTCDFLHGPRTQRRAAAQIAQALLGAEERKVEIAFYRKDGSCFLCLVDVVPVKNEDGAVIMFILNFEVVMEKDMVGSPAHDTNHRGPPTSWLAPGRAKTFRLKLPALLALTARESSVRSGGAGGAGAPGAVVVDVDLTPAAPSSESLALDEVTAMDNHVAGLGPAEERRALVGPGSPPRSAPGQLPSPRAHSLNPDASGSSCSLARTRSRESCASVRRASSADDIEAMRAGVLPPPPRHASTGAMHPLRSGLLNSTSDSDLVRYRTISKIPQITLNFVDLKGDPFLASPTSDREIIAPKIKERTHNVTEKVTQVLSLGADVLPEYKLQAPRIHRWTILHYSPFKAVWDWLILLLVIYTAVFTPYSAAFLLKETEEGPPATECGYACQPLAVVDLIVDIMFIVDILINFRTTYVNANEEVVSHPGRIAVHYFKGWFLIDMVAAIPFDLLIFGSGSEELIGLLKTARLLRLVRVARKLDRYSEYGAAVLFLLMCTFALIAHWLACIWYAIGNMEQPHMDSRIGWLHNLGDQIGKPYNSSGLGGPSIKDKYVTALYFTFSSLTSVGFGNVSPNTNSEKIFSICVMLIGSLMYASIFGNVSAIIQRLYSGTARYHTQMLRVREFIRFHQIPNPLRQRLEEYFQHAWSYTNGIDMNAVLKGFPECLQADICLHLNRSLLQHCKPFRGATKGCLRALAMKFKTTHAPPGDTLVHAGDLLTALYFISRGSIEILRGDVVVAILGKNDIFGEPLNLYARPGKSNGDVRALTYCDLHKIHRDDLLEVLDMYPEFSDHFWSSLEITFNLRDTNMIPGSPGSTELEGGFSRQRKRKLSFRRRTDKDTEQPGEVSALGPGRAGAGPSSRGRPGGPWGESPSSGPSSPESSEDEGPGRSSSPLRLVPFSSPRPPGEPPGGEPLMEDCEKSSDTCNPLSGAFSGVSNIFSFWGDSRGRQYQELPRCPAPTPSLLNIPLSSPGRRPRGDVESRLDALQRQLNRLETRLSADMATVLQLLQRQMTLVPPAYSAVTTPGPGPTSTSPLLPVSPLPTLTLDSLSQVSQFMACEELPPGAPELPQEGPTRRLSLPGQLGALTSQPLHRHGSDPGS

Molecule	IC50 [1]	Ki [1]	IC50 (D(4) dopamine receptor)	IC50 [2]	Ki [2]	IC50 (Insulin receptor)	IC50 [3]	IC50 (Mu-type opioid receptor)	IC50 (Cytochrome P450 3A4)	Ki (Cytochrome P450 3A4)	IC50 [4]	Ki [4]	Ki (D(4) dopamine receptor)	Ki (Insulin receptor)	Ki [3]	IC50 (Insulin receptor; read-out: IC50)	Ki (Insulin receptor; read-out: Ki)
COc1ccccc1OCC(O)COC(N)=O (stereo not drawn) [METHOCARBAMOL]	Not Active	Not Active	Not Active	Not Active	Not Active	Not Active	Not Active	Not Active	Not Active	Not Active	Not Active	Not Active	–	–	–	–	–
CO[C@@]1(NC(=O)CSCC#N)C(=O)N2C(C(=O)O)=C(CSc3nnnn3C)CS[C@@H]21 [CEFMETAZOLE]	Not Active	Not Active	Not Active	Not Active	Not Active	Not Active	Not Active	Not Active	Not Active	Not Active	Not Active	Not Active	–	–	–	–	–
C=C(CC)C(=O)c1ccc(OCC(=O)O)c(Cl)c1Cl [ETHACRYNIC ACID]	Not Active	Not Active	Not Active	Not Active	Not Active	Not Active	Not Active	Not Active	Not Active	Not Active	Not Active	Not Active	–	–	–	–	–
CN1C(=O)CN=C(c2ccccc2)c2cc(Cl)ccc21 [DIAZEPAM]	Not Active	Not Active	Not Active	Not Active	Not Active	Not Active	Not Active	Not Active	–	–	–	–	–	–	–	–	–
C[C@@H]1CC[C@H]2[C@@H](C)C(=O)O[C@@H]3O[C@@]4(C)CC[C@@H]1[C@]32OO4 [ARTEMISININ]	Not Active	Not Active	Not Active	Not Active	Not Active	Not Active	Not Active	Not Active	–	–	Not Active	Not Active	–	–	–	–	–
Cc1cn[nH]c1 [FOMEPIZOLE]	Not Active	Not Active	Not Active	Not Active	Not Active	Not Active	Not Active	Not Active	–	–	Not Active	Not Active	–	–	–	–	–
COc1ccccc1OCC(O)CO (stereo not drawn) [GUAIFENESIN]	Not Active	Not Active	Not Active	Not Active	Not Active	Not Active	Not Active	Not Active	–	–	Not Active	Not Active	–	–	–	–	–
N[C@@H](Cc1ccc(F)cc1)C(=O)O	Not Active	Not Active	Not Active	Not Active	Not Active	Not Active	Not Active	Not Active	–	–	Not Active	Not Active	–	–	–	–	–
CCOC(=O)C1=C(C)NC(C)=C(C(=O)OC)C1c1cccc(Cl)c1Cl (stereo not drawn) [FELODIPINE]	Not Active	Not Active	Not Active	Not Active	Not Active	Not Active	Not Active	Not Active	–	–	Not Active	Not Active	–	–	–	–	–
CCC[C@@H]1C[C@@H](C(=O)N[C@@H]([C@H]2O[C@H](SC)[C@H](O)[C@@H](O)[C@H]2O)[C@H](C)Cl)N(C)C1 [CLINDAMYCIN]	Not Active	Not Active	Not Active	Not Active	Not Active	Not Active	Not Active	Not Active	–	–	–	–	–	–	–	–	–
Nc1nc(N)nc(NC2CC2)n1 [CYROMAZINE]	Not Active	Not Active	Not Active	Not Active	Not Active	Not Active	Not Active	–	Not Active	Not Active	Not Active	Not Active	–	–	–	–	–
OCCN1CCN(CCCN2c3ccccc3Sc3ccc(Cl)cc32)CC1 [PERPHENAZINE]	Not Active	Not Active	Not Active	Not Active	Not Active	Not Active	Not Active	Not Active	–	–	–	–	–	–	–	–	–
CN1C[C@H](C(=O)N[C@]2(C)O[C@@]3(O)[C@@H]4CCCN4C(=O)[C@H](Cc4ccccc4)N3C2=O)C[C@@H]2c3cccc4[nH]cc(c34)C[C@H]21 [DIHYDROERGOTAMINE]	Not Active	Not Active	Not Active	Not Active	Not Active	Not Active	Not Active	Not Active	–	–	Not Active	Not Active	–	–	–	–	–
POLYVINYL ALCOHOL	Not Active	Not Active	Not Active	Not Active	Not Active	Not Active	Not Active	–	Not Active	Not Active	Not Active	Not Active	Not Active	Not Active	Not Active	–	–
CC[C@H]1OC(=O)[C@H](C)[C@@H](O[C@H]2C[C@@](C)(OC)[C@@H](O)[C@H](C)O2)[C@H](C)[C@@H](O[C@@H]2O[C@H](C)C[C@H](N(C)C)[C@H]2O)[C@](C)(O)C[C@@H](C)CN(C)[C@H](C)[C@@H](O)[C@]1(C)O [AZITHROMYCIN]	Not Active	Not Active	Not Active	Not Active	Not Active	Not Active	Not Active	Not Active	–	–	Not Active	Not Active	–	–	–	–	–
C/C=C\c1ccc(O)c(OC)c1 [ISOEUGENOL]	Not Active	Not Active	Not Active	Not Active	Not Active	Not Active	Not Active	Not Active	–	–	–	–	–	–	–	–	–
CC[C@H](C)C(=O)O[C@H]1C[C@@H](C)C=C2C=C[C@H](C)[C@H](CC[C@@H]3C[C@@H](O)CC(=O)O3)[C@H]21 [LOVASTATIN]	Not Active	Not Active	Not Active	Not Active	Not Active	Not Active	Not Active	Not Active	–	–	–	–	–	–	–	–	–
COBALT(II) ACETYLACETONATE	Not Active	Not Active	Not Active	Not Active	Not Active	Not Active	Not Active	–	Not Active	Not Active	Not Active	Not Active	Not Active	Not Active	Not Active	–	–
INSULIN HUMAN	Not Active	Not Active	Not Active	Not Active	Not Active	–	Not Active	–	Not Active	Not Active	Not Active	Not Active	Not Active	–	Not Active	1.93 nM	1.82 nM
Clc1cc2c(cc1Cl)Oc1cc(Cl)c(Cl)cc1O2 [2,3,7,8-TETRACHLORODIBENZO-P-DIOXIN]	Not Active	Not Active	Not Active	Not Active	Not Active	Not Active	Not Active	–	Not Active	Not Active	Not Active	Not Active	–	–	–	–	–
CC(C)C[C@H]1C(=O)N2CCC[C@H]2[C@]2(O)O[C@](NC(=O)[C@@H]3C=C4c5cccc6[nH]c(Br)c(c56)C[C@H]4N(C)C3)(C(C)C)C(=O)N12 [BROMOCRIPTINE]	Not Active	Not Active	Not Active	Not Active	Not Active	Not Active	Not Active	–	–	–	Not Active	Not Active	–	–	–	–	–
Cc1cnc(C(=O)NCCc2ccc(S(=O)(=O)NC(=O)NC3CCCCC3)cc2)cn1 [GLIPIZIDE]	Not Active	Not Active	Not Active	Not Active	Not Active	Not Active	Not Active	Not Active	–	–	–	–	–	–	–	–	–
COc1ccc(Cc2nccc3cc(OC)c(OC)cc23)cc1OC [PAPAVERINE]	Not Active	Not Active	Not Active	Not Active	Not Active	Not Active	Not Active	–	Not Active	Not Active	Not Active	Not Active	–	–	–	–	–

Source: ChEMBL document CHEMBL1909046, “DrugMatrix in vitro pharmacology data”
